Source: PMC10787398, “Simultaneous determination of colistin sulfate and tigecycline in human plasma by liquid chromatography-tandem mass spectrometry method” (BMC Chemistry, 2024)
Structures can show the parent of a compound that is named as a salt. Where a SMILES comes first, the peptide text is derived from it. Bridges are numbered along the chain shown (N, C = ends). [ ]: non-standard residue; d: D form. The star is where a group is joined. X1 = CC[C@H](C)CCCCC(=O)*; Dab = NCC[C@H](N)C(=O)O

Assays:
[1] = Plasma trough and peak concentrations in patients on intravenous polymyxin and tigecycline (HPLC-MS/MS); details: human, in vivo, iv, iv
Source text: Plasma samples were collected from patients receiving simultaneous intravenous polymyxin and tigecycline treatment. Inclusion criteria: ① Patients receiving simultaneous intravenous polymyxin and tigecycline treatment; ② Age ≥ 18 years; ③ Patients who consent to the monitoring of polymyxin and tigecycline blood drug concentrations during treatment. Exclusion criteria: ① Pregnant or lactating women; ② Treatment duration < 3 days; ③ Local administration; ④ Blood dialysis treatment. Once the blood drug concentration reached a steady state, 3 ml of venous blood was collected before and 30 min after the seventh administration to measure the peak and trough concentrations. This study was conducted with approval from the Ethics Committee of Second Hospital of Hebei Medical University (2020-R551). This study was conducted in accordance with the declaration of Helsinki.
Two hundred microliters of the plasma sample were adopted, with 20 µL of the internal standard added, and it was vortexed for 20 s. Two hundred microliters of 5% trichloroacetic acid was added for acidification and vortexed for 10 s. Two hundred microliters of methanol was added for extraction, vortexed for 2 min, and centrifuged at 10,900 r/min for 5 min. Two hundred microliters of the supernatant were aspirated into the injection bottle, and 10 µL of the sample was injected for the HPLC–MS/MS analysis.
All patients received an initial dose of 100 mg and a maintenance dose of 50 mg q12h for tigecycline. Three milliliters of venous blood were collected before and after the seventh administration to measure the peak and trough concentrations of the drugs.

[2] = Stability of analytes in spiked plasma samples under storage conditions; format: in vitro ADME, human; details: for Measured value, Stored at -80℃ for 7 days / Measured value, Automatic sampler 15℃ for 24 h / Measured value, Freeze-thaw for 3 cycles / Measured value, At 4℃ for 12 h / Measured value, At room temperature for 6 h: HPLC-MS/MS, n = 5; for Measured value, Automatic sampler 15℃ for 24 h: automatic sampler 15 ℃ 24 h; for Measured value, Freeze-thaw for 3 cycles: frozen at -80 °C and thawed at room temperature; for Measured value, At 4℃ for 12 h: refrigerator 4 °C 12 h
Experimental: Plasma samples with low, medium, and high mass concentrations were prepared (the mass concentrations of colistin sulfate were 0.1, 1, and 8 µg/mL, respectively, and those of tigecycline were 0.05, 0.5, and 4 µg/mL, respectively). Five replicates of each concentration were prepared and placed in a refrigerator at 4 °C for 12 h, at room temperature for 6 h, and in an automatic sampler at 15 ℃ for 24 h. The samples were, on three occasions, frozen at − 80 °C and thawed at room temperature, and then placed in a − 80 °C refrigerator for seven days. The concentrations and RSDs of colistin sulfate and tigecycline in the plasma samples were calculated based on the accompanying standard curve of the day to evaluate their stabilities.

[3] = within 8 h after administration; no reference given; cited from earlier work
Source text: The PK process of the drug in the body is often affected in patients with serious diseases accompanied by microcirculation disorders, hypoproteinemia, liver and kidney insufficiency, and other special pathophysiological states. Large fluctuations in plasma drug concentrations are commonly observed in these cases. TDM can aid in the optimization of administration dosage, individualized dosing, and anti-infective efficacy. Since colistin sulfate has not undergone modern drug development procedures, the current pharmacokinetic data remain unclear, and the plasma concentration is closely correlate ...

[4] = plasma QC high, nominal colistin sulfate 8 µg/mL, tigecycline 4 µg/mL
[5] = plasma QC low, nominal colistin sulfate 0.1 µg/mL, tigecycline 0.05 µg/mL
[6] = plasma QC medium, nominal colistin sulfate 1 µg/mL, tigecycline 0.5 µg/mL

For `CC[C@H](C)CCCCC(=O)N[C@@H](CCN)C(=O)N[C@H](C(=O)N[C@@H](CCN)C(=O)N[C@H]1CCNC(=O)[C@H]([C@@H](C)O)NC(=O)[C@H](CCN)NC(=O)[C@H](CCN)NC(=O)[C@H](CC(C)C)NC(=O)[C@@H](CC(C)C)NC(=O)[C@H](CCN)NC1=O)[C@@H](C)O` [Colistin sulfate, colistin sulfate] (X1-[Dab]T[Dab][Dab][Dab][dL]L[Dab][Dab]T; lactam 4-C), the level at 0.5 h ([1]; both, peak concentration of colistin sulfate, range over patients, 12 adult patients, steady state, after 7th administration, plasma, HPLC-MS/MS) was 890 to 4560 ng/mL, the Cmax ([1]; female, 500000 IU) was 890 ng/mL and the “Measured value, Stored at -80℃ for 7 days” value (from here on “Measured value, Stored”) ([2]; plasma QC high, nominal colistin sulfate 8 µg/mL, tigecycline 4 µg/mL, -80 °C 7 days) was 8.30 ± 0.32 µg/mL. The “Measured value, Automatic sampler 15℃ for 24 h” value (“Measured value … for 24 h” for short) [2, 4] was 8.17 ± 0.19 µg/mL, the “Measured value, Freeze-thaw for 3 cycles” value [2, 4] was 8.70 ± 0.54 µg/mL and the “Measured value, At 4℃ for 12 h” value [2, 4] was 8.23 ± 0.61 µg/mL. The “Measured value, At room temperature for 6 h” value (“Measured value … for 6 h” below) ([2]; plasma QC high, nominal colistin sulfate 8 µg/mL, tigecycline 4 µg/mL, room temperature 6 h) was 8.26 ± 0.30 µg/mL, the “Measured value, Stored” value ([2]; plasma QC low, nominal colistin sulfate 0.1 µg/mL, tigecycline 0.05 µg/mL, -80 °C 7 days) was 0.10 ± 0.00 µg/mL and the “Measured value … for 24 h” value [2, 5] was 0.10 ± 0.00 µg/mL. The “Measured value, Freeze-thaw for 3 cycles” value [2, 5] was 0.09 ± 0.00 µg/mL, the “Measured value, At 4℃ for 12 h” value [2, 5] was 0.09 ± 0.01 µg/mL and the “Measured value … for 6 h” value ([2]; plasma QC low, nominal colistin sulfate 0.1 µg/mL, tigecycline 0.05 µg/mL, room temperature 6 h) was 0.10 ± 0.00 µg/mL. The “Measured value, Stored” value ([2]; plasma QC medium, nominal colistin sulfate 1 µg/mL, tigecycline 0.5 µg/mL, -80 °C 7 days) was 0.98 ± 0.09 µg/mL, the “Measured value … for 24 h” value [2, 6] was 0.93 ± 0.01 µg/mL and the “Measured value, Freeze-thaw for 3 cycles” value [2, 6] was 1.04 ± 0.04 µg/mL. For the same molecule, the “Measured value, At 4℃ for 12 h” value [2, 6] was 0.93 ± 0.04 µg/mL, the “Measured value … for 6 h” value ([2]; plasma QC medium, nominal colistin sulfate 1 µg/mL, tigecycline 0.5 µg/mL, room temperature 6 h) was 1.00 ± 0.05 µg/mL and the “stability under the above conditions” value ([2]; plasma samples, 4 °C 12 h, room temperature 6 h, autosampler 15 ℃ 24 h, 3 freeze-thaw cycles, -80 °C 7 days) was “good stability”. For the same molecule, the “administered dose excreted in the urine” value [3] was 40%.
